Publication PMC8268376, “Effects of Venlafaxine, Risperidone and Febuxostat on Cuprizone-Induced Demyelination, Behavioral Deficits and Oxidative Stress” (International Journal of Molecular Sciences, 2021)

Target: TRPA1 (hTRPA1, transient receptor potential ankyrin 1) (Homo sapiens, UniProt O75762)
Test: Calcium […] fluorescence assay in hTRPA1-transfected vs untransfected HEK293T cells; agonist response blocked by A-967079; significant at […] and above
Type: cell-based

Sequence of TRPA1 (hTRPA1, transient receptor potential ankyrin 1) (O75762 whole entry): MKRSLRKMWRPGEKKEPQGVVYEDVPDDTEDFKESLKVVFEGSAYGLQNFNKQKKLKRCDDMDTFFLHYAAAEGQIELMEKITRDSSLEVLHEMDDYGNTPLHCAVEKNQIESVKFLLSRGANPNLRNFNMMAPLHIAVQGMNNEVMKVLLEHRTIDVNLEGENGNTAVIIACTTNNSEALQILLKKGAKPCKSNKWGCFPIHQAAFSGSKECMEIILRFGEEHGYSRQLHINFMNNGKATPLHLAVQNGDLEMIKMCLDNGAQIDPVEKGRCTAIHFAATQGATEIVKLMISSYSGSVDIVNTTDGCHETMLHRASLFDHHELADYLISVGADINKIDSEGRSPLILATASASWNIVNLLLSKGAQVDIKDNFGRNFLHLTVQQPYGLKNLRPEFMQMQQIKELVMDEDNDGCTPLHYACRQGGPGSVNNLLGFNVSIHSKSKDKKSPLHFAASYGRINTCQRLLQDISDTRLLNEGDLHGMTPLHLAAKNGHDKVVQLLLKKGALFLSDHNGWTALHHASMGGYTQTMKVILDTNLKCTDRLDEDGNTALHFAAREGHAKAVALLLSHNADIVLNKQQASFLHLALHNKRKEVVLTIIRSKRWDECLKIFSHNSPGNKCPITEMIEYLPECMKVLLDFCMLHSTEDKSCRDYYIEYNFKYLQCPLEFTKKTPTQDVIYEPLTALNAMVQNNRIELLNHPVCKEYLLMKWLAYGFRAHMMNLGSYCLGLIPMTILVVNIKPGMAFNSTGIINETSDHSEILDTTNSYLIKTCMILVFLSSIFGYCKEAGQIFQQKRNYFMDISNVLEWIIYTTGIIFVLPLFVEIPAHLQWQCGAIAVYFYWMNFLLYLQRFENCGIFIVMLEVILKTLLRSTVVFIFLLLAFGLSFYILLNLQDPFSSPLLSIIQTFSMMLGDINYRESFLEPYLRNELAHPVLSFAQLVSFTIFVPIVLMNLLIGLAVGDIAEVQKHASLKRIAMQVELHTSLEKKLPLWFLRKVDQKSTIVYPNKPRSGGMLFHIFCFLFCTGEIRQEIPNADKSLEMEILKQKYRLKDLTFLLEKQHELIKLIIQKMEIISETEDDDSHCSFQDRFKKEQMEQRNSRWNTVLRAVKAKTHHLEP

Cc1nc(-c2ccc(OCC(C)C)c(C#N)c2)sc1C(=O)O [febuxostat]
lowest concentration giving significant TRPA1 calcium response: ~ 126 µM
